Experiments:
[1] = Inhibition of SARS-CoV-2 RdRp expressed in Escherichia coli BL21 DE3 co-expressing […] incubated for 1 hr by fluorescent based assay; parameters: species or system Severe acute respiratory syndrome coronavirus 2
[2] = in vitro; details: monkey, Vero E6 cells
Description: Selectivity index, ratio of CC50 for cytotoxicity against African green monkey Vero E6 cells to EC50 for antiviral activity against SARS-CoV-2 infected in eGFP expressing African green monkey Vero E6 cells

[3] = in vitro; details: human, HEL 299 cells
Description: Selectivity index, ratio of CC50 for cytotoxicity against HEL 299 cells to EC50 for antiviral activity against HCoV-229E infected in HEL 299 cells

[4] = test system: Severe acute respiratory syndrome coronavirus 2; assay: Inhibition of SARS-CoV-2 RdRp expressed in Escherichia coli BL21 DE3 co-expressing […] at 30 uM incubated for 1 hr by fluorescent bases assay
[5] = target: Replicase polyprotein 1ab (Severe acute respiratory syndrome coronavirus 2) (UniProt P0DTD1); assay: Inhibition of SARS-CoV-2 nsp13 ATPase-associated activity using ATP as substrate at highest concentration of compound incubated for 30 mins by Biomol Green Reagent based assay

SMILES | IC50 [1] [µM] | selectivity ratio [2] | selectivity ratio [3] | inhibition [4] [%] | inhibition [5] [%]
CCCOc1ccc(-c2cc(OCCN3CCN(Cc4ccccc4)CC3)c3c(OC)cc(OC)cc3n2)cc1 | > 30 | > 12.7 | 16.4 | 100 | –
CCCOc1ccc(-c2cc(OCCN3CCNCC3)c3cccc(OC)c3n2)cc1 | – | 4.3 | 25.6 | – | –
CCCOc1ccc(-c2cc(OCCN(CC)CC)c3cccc(OC)c3n2)cc1 | – | > 11 | 8.2 | – | –
CCCOc1ccc(-c2cc(OCCN3CCCCC3)c3cc(OC)c(OC)cc3n2)cc1 | – | 4.3 | 52.4 | – | –
CCCOc1ccc(-c2cc(OCCN(CC)CC)c3c(OC)ccc(OC)c3n2)cc1 | – | 5.3 | 13.8 | – | –
CCCOc1ccc(-c2cc(OCCN3CCCC3)c3cc(OC)c(OC)cc3n2)cc1 | – | 1.3 | – | – | –
CCCOc1ccc(-c2cc(OCCN(CC)CC)c3c(OC)c(OC)c(OC)cc3n2)cc1 | – | 2.9 | – | – | –
C=CCn1c(S)nnc1CSc1ccccc1[N+](=O)[O-] | – | – | – | – | 90
CCCOc1ccc(-c2cc(OCCN3CCc4cc(OC)c(OC)cc4C3)c3c(OC)cc(OC)cc3n2)cc1 | > 30 | – | – | – | –
CCCOc1ccc(-c2cc(OCCN(CC)CC)c3cc(OC)cc(OC)c3n2)cc1 | – | > 7.7 | 12.4 | – | –
CCCOc1ccc(-c2cc(OCCN(CC)CC)c3cc(OC)c(OC)cc3n2)cc1 | – | 13.8 | 5.2 | – | –
CCCOc1ccc(-c2cc(OCCN3CCCC3)c3cc(OC)cc(OC)c3n2)cc1 | > 30 | > 16.9 | > 2.5 | 100 | –
CCCOc1ccc(-c2cc(OCCN3CCCCC3)c3c(OC)ccc(OC)c3n2)cc1 | > 30 | 8.8 | 10.2 | 100 | –
CCCOc1ccc(-c2cc(OCCN3CCN(Cc4ccccc4)CC3)c3cccc(OC)c3n2)cc1 | – | 2.8 | – | – | –
CCCOc1ccc(-c2cc(OCCN3CCN(Cc4ccccc4)CC3)c3ccccc3n2)cc1 | – | > 8.4 | > 1.6 | – | –
CCCOc1ccc(-c2cc(OCCN3CCCC3)c3c(OC)ccc(OC)c3n2)cc1 | – | 7.9 | 13.4 | – | –
